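The compound was tested at five concentrations on cells cultured in 96-well plates, with a 48-hour exposure period. GI50 is the concentration that inhibits growth by half.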 Calls of active or inactive are those of the source. Cut-off read from the data, not from the text of the source: active = GI50 up to about 1.1 µM and inactive = higher.

Holding throughout (assay): NCI tumour cell line growth inhibition, 48 h
The test system of assay [1] is HCT-116.
The subject of assay [2] is SK-MEL-5.
For assay [3], the system named is HL-60.
The subject of assay [4] is NCI-H460.
For assay [5], the system named is LOX IMVI.
Assay [6] relates to COLO 205.
In assay [7] the test system is UO-31.
Assay [8] has as its system CCRF-CEM.
Assay [9] relates to SK-MEL-28.
The test system of assay [10] is MOLT-4.
Assay [11] concerns SF-295.
The subject of assay [12] is K562.
Assay [13] concerns SN12C.
The subject of assay [14] is SK-MEL-2.
In assay [15] the test system is SF-268.
The subject of assay [16] is OVCAR-8.
The test system of assay [17] is A549.
Assay [18] has as its system SW-620.
In assay [19] the test system is HT-29.
The subject of assay [20] is OVCAR-5.

Take `COC(=O)C1CCC(=O)N1/C(C)=N/NC(=O)Nc1ccc(Cl)c(Cl)c1` (stereo not drawn): the GI50 in assay [1] is > 100 µM (inactive); in assay [2], > 100 µM (inactive); in [3], > 100 µM (inactive); in [4] it was > 100 µM (inactive); in [5], 31.5 µM (inactive); in assay [6], > 100 µM (inactive). Besides, the GI50 in assay [7] was > 100 µM (inactive); in [8] it was > 100 µM (inactive); in [9], > 100 µM (inactive); in assay [10], 99.1 µM (inactive); in assay [11], > 100 µM (inactive); in assay [12] it was 16.6 µM (inactive). Also, the GI50 in assay [13] was > 100 µM (inactive); in assay [14] it was > 100 µM (inactive); in assay [15] it was 69.5 µM (inactive); in [16], > 100 µM (inactive); in assay [17] it was > 100 µM (inactive); in [18], > 100 µM (inactive).
For `COC(=O)C1=C(O)C(C(=O)OC)[C@]2(O)[C@@H](C(=O)OC)[C@H]1C[C@@H](c1ccccc1)[C@@H]2C(=O)OC` (stereo partly drawn), the GI50 in [1] is 6.98 µM (inactive); in [3], 19.6 µM (inactive); in assay [4], 14 µM (inactive); in assay [5], 15.4 µM (inactive); in assay [7], 12.2 µM (inactive); in assay [8], 5.42 µM (inactive). Besides, the GI50 is 16.3 µM (inactive) in assay [19]; 20.9 µM (inactive) in assay [9]; 11.6 µM (inactive) in assay [10]; 5.61 µM (inactive) in assay [12]; 15.7 µM (inactive) in assay [13]; 13.9 µM (inactive) in [14]. In addition, the GI50 in assay [15] was 1.96 µM (inactive); in assay [20], 16 µM (inactive).
As to `O=P1(N2CCOCC2)OCCO1`, the GI50 in [1], in assay [2], in assay [3], in [4], in assay [5] and in [6] was > 100 µM (inactive) in each case. Moreover, the GI50 in [7], in [8], in [19], in [9], in assay [10] and in [11] was > 100 µM (inactive) throughout. For the same compound, the GI50 in assay [12], in assay [13], in [15], in [20], in assay [17] and in assay [18] was > 100 µM (inactive) in each case.
`CCSc1nc(N)c2c(-c3ccc(OC)c(OC)c3)c3c(nc2n1)CCCC3`: the GI50 in assay [1], in assay [2], in [3], in assay [4], in assay [5] and in [6] was > 100 µM (inactive) throughout. Besides, the GI50 in assay [7], in assay [8], in [19], in assay [9], in [10] and in assay [11] was > 100 µM (inactive) throughout. The GI50 in assay [12], in assay [13], in assay [15], in [20], in assay [16] and in [17] was > 100 µM (inactive) throughout. In assay [18], the GI50 is > 100 µM (inactive).
In the case of `COP(=O)(OC)[C@H](O)[C@H]1C[C@@H]1c1ccccc1`, the GI50 in assay [2], in assay [3], in assay [4], in [5], in assay [6] and in [7] was > 100 µM (inactive) in each case. For the same compound, the GI50 in assay [19], in assay [9], in [10], in assay [11], in assay [12] and in assay [14] was > 100 µM (inactive) each time. The GI50 in assay [15], in assay [20], in assay [16], in [17] and in assay [18] was > 100 µM (inactive) in each case.
For the compound `CN1CC=C(c2cccn2C)CC1`, the GI50 in assay [1], in assay [2], in assay [3], in assay [5], in assay [6] and in [7] was > 100 µM (inactive) throughout. For the same compound, the GI50 in assay [8], in assay [19], in [9], in [10], in assay [11] and in [12] was > 100 µM (inactive) each time. Besides, the GI50 in [13], in [14], in assay [15], in assay [20], in assay [16] and in [17] was > 100 µM (inactive) throughout. Besides, the GI50 in assay [18] was > 100 µM (inactive).
Regarding `Cc1ccc2c(O)cc(-c3cc(C)sc3C)nc2n1`, the GI50 in assay [1] is 3.84 µM (inactive); in assay [2] it was 0.708 µM (active); in assay [3], 1.53 µM (inactive); in assay [4] it was 4.21 µM (inactive); in assay [5], 5.08 µM (inactive); in assay [6] it was 2.26 µM (inactive). For the same compound, the GI50 is 4.29 µM (inactive) in [7]; 2.53 µM (inactive) in assay [8]; 4.82 µM (inactive) in [19]; 5.53 µM (inactive) in assay [9]; 4.14 µM (inactive) in assay [10]; 1.94 µM (inactive) in assay [11]. The GI50 is 2.94 µM (inactive) in assay [12]; 6.44 µM (inactive) in assay [13]; 6.04 µM (inactive) in [15]; 11.6 µM (inactive) in assay [20]; 3.91 µM (inactive) in assay [16]; 3.94 µM (inactive) in assay [17]. Moreover, the GI50 in [18] is 1.67 µM (inactive).
Regarding `COC(=O)C1(c2ccc(N(C)C)cc2OC)CCCN(C(=O)Oc2ccccc2[N+](=O)[O-])CCc2c1[nH]c1ccccc21` (stereo not drawn), the GI50 in [1] is > 100 µM (inactive); in [2], > 100 µM (inactive); in assay [3] it was 22.9 µM (inactive); in assay [4] it was > 100 µM (inactive); in assay [5] it was > 100 µM (inactive); in assay [6], > 100 µM (inactive). Moreover, the GI50 in assay [7] is 51.4 µM (inactive); in assay [19], > 100 µM (inactive); in assay [9], > 100 µM (inactive); in assay [10], 16.9 µM (inactive); in assay [11], > 100 µM (inactive); in assay [12], 78.3 µM (inactive). In addition, the GI50 in assay [13], in [14], in assay [15], in assay [20], in assay [16] and in assay [17] was > 100 µM (inactive) each time. The GI50 in assay [18] was > 100 µM (inactive).

Source of the values: ChEMBL document CHEMBL1201862, “PubChem BioAssay data set” (2004).
